Experimental data taken from US10151698B2, “Selection by compartmentalized screening” (Medical Research Council, priority 2003, dated 2018).

Columns and labels:
PTPIB = biological target: T1, PTPIB (Homo sapiens, UniProt P18031); details: Johnson et al., 2002; cited from earlier work
T1 sequence (P18031 1-435): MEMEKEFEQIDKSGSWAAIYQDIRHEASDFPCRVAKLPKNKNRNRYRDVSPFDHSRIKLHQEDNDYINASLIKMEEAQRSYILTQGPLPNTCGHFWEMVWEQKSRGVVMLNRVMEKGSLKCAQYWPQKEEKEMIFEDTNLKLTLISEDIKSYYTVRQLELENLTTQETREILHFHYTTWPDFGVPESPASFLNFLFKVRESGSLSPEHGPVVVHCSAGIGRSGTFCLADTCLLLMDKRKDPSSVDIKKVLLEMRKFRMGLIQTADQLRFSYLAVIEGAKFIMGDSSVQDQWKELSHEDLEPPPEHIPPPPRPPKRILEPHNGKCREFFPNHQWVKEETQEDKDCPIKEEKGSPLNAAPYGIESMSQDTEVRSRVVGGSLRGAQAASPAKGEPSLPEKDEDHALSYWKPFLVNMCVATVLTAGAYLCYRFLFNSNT

[1] = biological target: T2, human recombinant PTPIB, residues 1-322 (Homo sapiens, UniProt P18031); assay: Screening for PTPIB inhibitors using microcapsules in microfluidic systems (DiFMUP, epifluorescence microscope); format: biochemical; details: Example 5; 100 μM compound solution; PTPIB 50 mU/ml; fused microcapsules run up to 2 min
T2 construct: human recombinant PTPIB, residues 1-322; purchased Biomol Research Laboratories, Inc
T2 sequence (P18031 1-322): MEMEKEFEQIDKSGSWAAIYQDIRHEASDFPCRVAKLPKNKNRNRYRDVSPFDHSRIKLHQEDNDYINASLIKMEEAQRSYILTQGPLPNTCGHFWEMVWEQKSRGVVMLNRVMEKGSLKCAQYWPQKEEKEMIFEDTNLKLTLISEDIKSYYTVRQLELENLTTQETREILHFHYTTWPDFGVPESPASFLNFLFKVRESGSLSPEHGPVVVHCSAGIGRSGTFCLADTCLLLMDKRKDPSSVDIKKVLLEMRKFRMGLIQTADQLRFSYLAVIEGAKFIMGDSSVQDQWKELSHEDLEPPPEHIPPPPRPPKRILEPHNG
Method: Microchannels are fabricated with rectangular cross-sections using rapid prototyping in poly(dimethylsiloxane) (PDMS) (McDonald and Whitesides, 2002) and rendered hydrophobic as (Song and Ismagilov, 2003). Syringe pumps were used to drive flows (Harvard Apparatus PHD 2000 Infusion pumps). For aqueous solutions, 50 μl Hamilton Gastight syringes (1700 series, TLL) with removeable needles of 27-gaugeare used with 30-gauge Teflon tubing (Weico Wire and Cable). For the carrier fluid, 1 ml Hamilton Gastight syringes (1700 series, TLL) are used with 30-gauge Teflon needles with one hub from Hamilton (Song and Ismagilov, 2003). The carrier fluid is 9% (v/v) C6F11C2H4OH in perfluorodecaline (PFD) (Song et al., 2003). All water-soluble reagents were dissolved in (25 mM HEPES, pH 7.4, 125 mM NaCl, 1 mM EDTA), a buffer compatible with PTPIB activity.
These three steams are continuously injected into a flow of water immiscible fluorocarbon carrier fluid (9% (v/v) C6FπC2H OH in PFD). Inlet channels for the aqueous solutions are […] wide and channel for PFD is 28 μm wide. […]
The channel immediately downstream of the point of droplet formation is winding with a peak to peak distance of 50 μm for a distance of 1 mm. […] Fluorescence of the microcapsules due to production of DiFMU (excitation/emmission maxima 358/452 nm; blue fluorescence) is measured using an epifluorescence microscope.

[2] = biological target: T2, human recombinant PTPIB, residues 1-322; assay: Screening for PTPIB inhibitors in water-in-oil emulsion microcapsules with fluorogenic substrate DiFMUP, multi-colour flow cytometry; format: biochemical; details: 100 μM compound, 37° C. for 30 min
Method: The syringes are fitted into the openings on both sides of the filter holder of the extruder. The compound mix is forced through the filter holder into the alternate syringe containing the decane/surfactant mix and directly forced back into the original syringe to complete one round of extrusion. In total, 7.5 rounds of extrusion are completed. The filled syringe is removed from the extruder and emptied into a 1.7 ml Axygen tube (# MCT-175-C, Axygen Scientific, Inc., Union City, Calif., USA).
The two emulsions are mixed by vortexing in ratios varying from 1:1000 to 1:1 (compound 2 emulsion: hydrocinnamic acid emulsion) and incubated at 37° C. for 30 min. Inhibitors reduce the amount of non-fluorescent substrate (DiFMUP) converted to the dephosphorylated product (DiFMU; excitation/emmission maxima 358/452 nm; blue fluorescence). […]
The double emulsions are then analysed by multi-colour flow cytometery using a MoFlo (Cytomation) flow cytometer. […]
50 μl of each of the compound mixtures is added sequentially to a solution of 1% (w/v) Span 60 and 1% (w/v) cholesterol in decane, made and held at 37° C. as example 1, whilst homogenising at 25,000 r.p.m. using an Ultra-Turrax T8 Homogenizer (IKA) with a 5 mm dispersing tool. […] Inhibitors reduce the amount of non-fluorescent substrate (DiFMUP) converted to the dephosphorylated product (DiFMU; excitation/emmission maxima 358/452 nm; blue fluorescence). […]

[3] = Compartmentalisation of small molecules in water-in-fluorocarbon emulsions (epifluorescence microscopy); format: physicochemical; details: water-in-perfluorooctyl bromide emulsions mixed by vortexing; 24 hours after mixing
Method: FIG. 3. Compartmentalisation of small molecules in water-in-fluorocarbon emulsions. Water-in-perfluorooctyl bromide emulsions were made containing texas red (1 mM) and calcein (1 mM) in the aqueous phase by homogenisation as described in example 9. The two emulsions were mixed by vortexing and imaged by epifluorescence microscopy after 24 hours. No exchange of texas-red (red fluorescence) and calcein (green fluorescence) between microdroplets could be observed.
Water-in-fluorocarbon emulsions containing 95% (v/v) perfluorooctyl bromide, 5% (v/v) phosphate buffered saline containing the molecule of interest in solution, and 2% (w/v) C8F17C11H22OP(O)[N(CH2CH2)2O]2 (F8H11DMP) as surfactant were formed essentially as (Sadtler et al., 1996) by extrusion (15 times) through 14 μm filters (Osmonics) or by homogenising for 5 min at 25,000 r.p.m. using an Ultra-Turrax T8 Homogenizer (IKA) with a 5 mm dispersing tool. Emulsions were made containing a series of small fluorescent molecules dissolved in the aqueous phase at concentrations from […] to 2 mM. These molecules, including calcein, texas red, fluorescein, coumarin 102, 7-hydroxycoumarin-3-carboxylic acid and 7-diethylamino-4-methyl coumarin (coumarin 1), had molecular weights from 203 to 625 Da and Log P values—calculated using SRC's Log Kow/KowWin Program (Meylan and Howard, 1995)—ranging from −0.49 to 4.09. […]

fluorescence of the microcapsules due to production of DiFMU [1]	blue fluorescence of microcapsules (DiFMU from dephosphorylation of DiFMUP by PTPIB) ([2]; Example 1, two emulsions mixed 1:1000 to 1:1)	blue fluorescence of microcapsules (DiFMU from dephosphorylation of DiFMUP by PTPIB) ([2]; Example 2, mixtures added sequentially to one oil phase)	exchange between microdroplets/compartments [3]	Compound	PTPIB inhibitor or not (PTPIB)
exhibiting blue fluorescence	also show blue fluorescence	also show blue fluorescence		O=C(O)CCc1ccccc1 [hydrocinnamic acid]	not a PTPIB inhibitor
			No exchange	O=C(O)CN(CC(=O)O)Cc1cc2c(cc1O)Oc1cc(O)c(CN(CC(=O)O)CC(=O)O)cc1C21OC(=O)c2ccccc21 [calcein]	
			No exchange	texas red	
